From US20240181022A1, “AMURINS LYSINS, AND LYSIN-ANTIMICROBIAL PEPTIDE (AMP) CONSTRUCTS ACTIVE AGAINST GRAM-NEGATIVE BACTERIA” (priority 2021, published 2024)
Where “and” joins values, the source holds several entries; their conditions need not be identical. Identical values can stand only once. Where no end group is shown, it is not given here. [ ]: non-standard residue; d: D form.

How the values were obtained:
P. aeruginosa = test: Checkerboard synergy assay (FICI) with antibiotics against P. aeruginosa; type: cell-based, Pseudomonas aeruginosa; conditions: for Antibiotic MIC (single agent): P. aeruginosa strain AR-769; for Antibiotic FIC / Antibiotic MIC (combo): P. aeruginosa strain AR-769, in combination with GN370; for Antibiotic MIC (combo): in µg/mL
Method: Any known method to assess MIC may be used.
Checkerboards are constructed by first preparing columns of e.g., a 96-well polypropylene microtiter plate, wherein each well has the same amount of antibiotic diluted 2-fold along the horizontal axis. […] Bacteria are added to the drug combinations at concentrations of 1×10^5 […] in CAA, for example, with or without human serum or pulmonary surfactant. […] Summation fractional inhibitory concentrations (ΣFICs) are calculated for each drug and the minimum ΣFIC value (ΣFICmin) is used to determine the effect of the Chp peptide/antibiotic combination.
The synergy of GN370 with meropenem was evaluated against 3 different strains of P. aeruginosa and three different strains of B. cenocepacia.
GN370 was further tested in combination with up to seven additional antibiotics (in addition to meropenem) against a variety of bacterial strains, including P. aeruginosa, A. baumannii, E. coli, E. cloacae, and K. pneumoniae. GN370 and the subject antibiotics were tested in a checkerboard assay format, and FICI values were determined, wherein ≤0.5 indicates synergy, >0.5-≤1 indicates additive; and >1 indicates indifferent.

M. kansasii = test: MIC against M. kansasii; type: cell-based, Mycobacterium kansasii; conditions: M. kansasi (ATCC 12478); CAAT media
M. scrofulaceum = test: MIC against M. scrofulaceum; type: cell-based, Mycobacterium scrofulaceum; conditions: M. scrofulaceum (ATCC 19981); CAAT media
M. avium = test: MIC against M. avium; type: cell-based, Mycobacterium avium; conditions: M. avium (ATCC 700898); CAAT media
M. intracellulare = test: MIC against M. intracellulare; type: cell-based, Mycobacterium intracellulare; conditions: M. intracellulare (ATCC 13950); CAAT media
M. fortuitum = test: MIC against M. fortuitum; type: cell-based, Mycobacterium fortuitum; conditions: M. fortuitum (ATCC 6841); CAAT media
M. smegmatis = test: MIC against M. smegmatis; type: cell-based, Mycobacterium smegmatis; conditions: M. smegmatis (MC 155); CAAT media
M. tuberculosis = type: cell-based, Mycobacterium tuberculosis; conditions: M. tuberculosis (ATCC 35817); (ADC, T) media

Compound	Antibiotic MIC (single agent) (P. aeruginosa) [µg/mL]	Antibiotic FIC (P. aeruginosa)	Antibiotic MIC (combo) (P. aeruginosa)	MIC (M. kansasii) [µg/mL]	MIC (M. scrofulaceum) [µg/mL]	MIC (M. avium) [Tg/mL]	MIC (M. intracellulare) [µg/mL]	MIC (M. fortuitum) [µg/mL]	MIC (M. smegmatis) [µg/mL]	MIC (M. tuberculosis) [µg/mL]
CO/N=C(\C(=O)N[C@@H]1C(=O)N2C(C(=O)[O-])=C(C[N+]3(C)CCCC3)CS[C@H]12)c1csc(N)n1 [Cefepime]	256	0.25 and 0.125	64 and 32							
CC(C)(O/N=C(\C(=O)N[C@@H]1C(=O)N2C(C(=O)[O-])=C(C[n+]3ccccc3)CS[C@H]12)c1csc(N)n1)C(=O)O [Ceftazidime]	512	1	512							
AGT915: SEQ ID NO: 63, Marine gokushovirus (MRRYNVNKGKSAKKFRKQVSKTKVANLRSNPMRGGWRL; listed as Marine gokushovirus)				1	>64	>64	>64	1	1	4
ALCES1: SEQ ID NO: 59, Alces alces faeces associated microvirus (MAKKIRNKARDRRIFTRTASRMHKANRTPRFMRGGIRL; Alces alces faeces associated microvirus MP12 5423)				2	2	8	2	4	2	8
AVQ206: SEQ ID NO: 60, Gokushovirinae environmental samples (MRRKKMSRGKSKKLFRRTAKRVHRKNLRARPMRGGIRM)				2	4	1	4	2	16	8
Chp1: Chp peptide, SEQ ID NO: 1, Phage Chp1 (MVRRRRLRRRISRRIFRRTVARVGRRRRSFRGGIRF; Chlamydia virus Chp1)				4	4	4	4	16	16	32
Chp4: Chp peptide, SEQ ID NO: 4, Phage 4 (MARRYRLSRRRSRRLFSRTALRMHRRNRLRRIMRGGIRF; Chlamydia phage 4)				>0.125	2	1	1	4	4	16
Chp8: Chp peptide, SEQ ID NO: 8 (MSKKRSRMSRRRSKKLFSKTALRTKSVNTRPPMRGGFRF; listed as Chlamydia trachomatis)				4	4	8	4	2	8	8
Chp9: Chp peptide, SEQ ID NO: 9 (MSLRRHKLSRKASKRIFRKGASRTKTLNTRATPMRGGFRI; listed as Chlamydia trachomatis)				8	8	>64	4	4	8	8
Chp10: Chp peptide, SEQ ID NO: 10 (MKRRKLSKKKSRKIFTRGAVNVKKRNLRARPMRGGFRI; listed as Chlamydia trachomatis)				4	0.5	0.5	0.5	1	1	8
Ecp2: SEQ ID NO: 18, hypothetical protein (E. coli) (MARSRRRMSKRSSRRSFRKYAKSHKKNFKARSMRGGIRL; listed as Escherichia coli)				2	4	2	8	4	8	4
Ecp3-M1: Modified variant of Ecp3, SEQ ID NO: 100 (MA[dR]S[dR][dR][dR]MS[dK][dR]SS[dR][dR]SF[dR][dK]YA[dK]TH[dK][dK]NF[dK]A[dR]SM[dR]GGI[dR]L)				2	2	0.5	8	8	1	8
Ecp3: SEQ ID NO: 55, nonstructural protein (Escherichia) (MARSRRRMSKRSSRRSFRKYAKTHKKNFKARSMRGGIRL; listed as Escherichia sp.)				2	2	1	8	2	8	8
Fen7875: SEQ ID NO: 65, Gokushovirinae Fen7875_21 (MKPLKRKPVQKARSAAKFRRNVSTVKAANMAVKPMRGGWRF)				32	16	2	8	8	16	4
Gkh1: SEQ ID NO: 13, Marine gokushovirus (MRRPRKMNYKKSKRMFSRTAARTHRKNSLRGSRPMRGGIRL; listed as Marine gokushovirus)				2	8	4	4	1	4	8
HH3930: SEQ ID NO: 64, Richelia intracellularis HH01 (MRPVKRSRVNKARSAGKFRKQVGKTKMANLRSNPMRGGWRL)				32	16	4	16	8	16	4
Spi1: SEQ ID NO: 25, Spiroplasma virus SpV4 Orf9 (MAYRGFKTSRVVKHRVRRRWFNHRRRYR; Spiroplasma virus SpV4)				0.5	2	>64	4	8	16	16
Spi2-M1: Modified variant of Spi2, SEQ ID NO: 99 (M[dR][dR][dK]V[dK]NT[dK][dR]HQW[dR]LTHSA[dR]SI[dK][dR]ANIMPSNP[dR]GG[dR][dR])				4	16	>64	>64	4	1	8
Spi2: SEQ ID: 26, Spiroplasma virus SpV4 Orf8 (MRRKVKNTKRHQWRLTHSARSIKRANIMPSNPRGGRRF; Spiroplasma virus SpV4)				1	8	>64	>64	4	4	16
Unp1: SEQ ID NO: 15, unnamed protein product (uncultured bacterium) (MKMRKRTDKRVFTRTAAKSKKVNIAPKIFRGGIRL)				8	8	1	32	8	2	4
Unp2: SEQ ID NO: 20, unnamed protein product (MRRRRLSRRTSRRFFRKGLKVRRRNLRARPMRGGFRI)				2	4	0.5	1	2	4	8
Unp3-M1: Modified variant of Unp3, SEQ ID NO: 98 (MA[dR][dR][dK][dK]M[dK]G[dK][dR]D[dK][dR]VF[dK]QTAN[dK]T[dK]AINISP[dK]NM[dR]GGT[dR]L)				16	8	8	>64	4	8	4
Unp4: SEQ ID NO: 94, Marine gokushovirus (MIVRRHKMSRRRSRKLFSKTASRTRSKNLRSRPMRGGYRI; listed as Marine gokushovirus)				4	4	1	4	4	16	16
